From paper doi:10.1101/2025.10.06.680794v3 (biorxiv, 2026)

Molecular target: p53 core domain (WT p53) (Homo sapiens, UniProt P04637)
Experiment: intrinsic fluorescence quenching
Type: binding

Chain of p53 core domain (WT p53) (P04637 94-312): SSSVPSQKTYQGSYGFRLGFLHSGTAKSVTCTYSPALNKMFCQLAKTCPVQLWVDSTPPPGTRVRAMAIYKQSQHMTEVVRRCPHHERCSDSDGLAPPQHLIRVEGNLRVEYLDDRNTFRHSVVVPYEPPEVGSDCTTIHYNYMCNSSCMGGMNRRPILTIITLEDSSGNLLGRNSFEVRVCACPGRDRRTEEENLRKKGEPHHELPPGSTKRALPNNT

- Kd: 9.8 ± 0.1 µM
SMILES: CC1(C)CC(NCC(=O)N2C/C(=C\c3ccc(C#N)cc3)C(=O)/C(=C/c3ccc(C#N)cc3)C2)C(C)(C)N1[O] (stereo not shown) [AKT-100]
